Biological target: T1, Recombinant human HSP90α (Homo sapiens, UniProt P07900)
T1 construct: host or cells: E. coli
Assay: Radioligand filter binding test: competitive inhibition of [3H]17AAG binding to HSP90
Details: [3H]17AAG 0.08 μM, HSP90 1.5 μg/assay, 22° C., 30 min
Protocol: In the specific case, a radioligand filter binding test is used. The radioligand used here is tritium-labelled 17-allylaminogeldanamycin, [3H]17AAG, This filter binding test allows a targeted search for inhibitors which interfere with the ATP binding site.
Recombinant human HSP90α (E. coli expressed, 95% purity);
HEPES filter buffer (50 mM HEPES, pH 7.0, 5 mM MgCl2, BSA 0.01%) Multiscreen FB (1 μm) filter plate (Millipore, MAFBNOB 50).
The 96-well microtitre filter plates are firstly irrigated and coated with 0.1% of polyethylenimine.
The test is carried out under the following conditions:
Reaction temperature 22° C.
Reaction time: 30 min., shaking at 800 rpm
50 mM HEPES HCl, pH 7.0, 5 mM MgCl2, 0.01% (w/v) of BSA
At the end of the reaction, the supernatant in the filter plate is removed by suction with the aid of a vacuum manifold (Multiscreen Separation System, Millipore), and the filter is washed twice.
The filter plates are then measured in a beta counter (Microbeta, Wallac) with scintillator (Microscint 20, Packard).
“% of control” is determined from the “counts per minutes” values, and the IC-50 value of a compound is calculated therefrom.

`COCCN(C)C(=O)c1cc2c(Cc3ccccc3)n[nH]c2cc1O` [Compound A7, 5-[N-(2-Methoxyethyl)-N-methylaminocarbonyl]-3-benzyl-6-hydroxy-1H-indazole] and `COCCN(C)C(=O)c1cc2c(Cc3cccc(C)c3)n[nH]c2cc1O` [Compound A37, 5-[N-(2-Methoxyethyl)-N-methylaminocarbonyl]-3-(3-methylbenzyl)-6-hydroxy-1H-indazole] fall in the same range of IC50: 1000 to 10000 nM for the first, 1000 to 10000 nM for the second.

First: CCCN(C)C(=O)c1cc2c(Cc3ccc(C)c(C)c3)n[nH]c2cc1O [Compound A73, 5-(N-Propyl-N-methylaminocarbonyl)-3-(3,4-dimethylbenzyl)-6-hydroxy-1H-indazole]
Second: COCCN(C)C(=O)c1cc2c(Cc3ccccc3C)n[nH]c2cc1O [Compound A45]
The IC50 of the first is lower: 1000 to 10000 nM for the first, > 10000 nM for the second. The first is the more potent here.

First: Cc1cccc(Cc2n[nH]c3cc(O)c(C(=O)N(C)Cc4ccc5c(c4)OCCO5)cc23)c1 [Compound A101, 5-[N-(2,3-Dihydrobenzo-1,4-dioxin-6-ylmethyl)-N-methylaminocarbonyl]-3-(3-methylbenzyl)-6-hydroxy-1H-indazole]
Second: CN(Cc1cccc(Br)c1)C(=O)c1cc2c(Cc3ccccc3)n[nH]c2cc1O [Compound A26, 5-[N-(3-Bromobenzyl)-N-methylaminocarbonyl]-3-benzyl-6-hydroxy-1H-indazole]
The IC50 of the first is lower: 10 to 1000 nM for the first, 1000 to 10000 nM for the second. The first is the more potent here.

`CN(Cc1cccc(Cl)c1)C(=O)c1cc2c(Cc3ccccc3)n[nH]c2cc1O` [Compound A10, 5-[N-(3-Chlorobenzyl)-N-methylaminocarbonyl]-3-benzyl-6-hydroxy-1H-indazole] and `CCCN(C)C(=O)c1cc2c(CCc3ccccc3)n[nH]c2cc1O` [Compound A182, 5-(N-Propyl-N-methylaminocarbonyl)-3-phenethyl-6-hydroxy-1H-indazole] fall in the same range of IC50: 1000 to 10000 nM for the first, 1000 to 10000 nM for the second.

`Cc1cccc(Cc2n[nH]c3cc(O)c(C(=O)N(C)c4cccc(OC(F)(F)F)c4)cc23)c1` [Compound A154, 5-[N-(3-Trifluoromethoxyphenyl)-N-methylaminocarbonyl]-3-(3-methylbenzyl)-6-hydroxy-1H-indazole] and `COc1ccc(N(C)C(=O)c2cc3c(Cc4cccc(C)c4)n[nH]c3cc2O)cc1OC` [Compound A145, 5-[N-(3,4-Dimethoxyphenyl)-N-methylaminocarbonyl]-3-(3-methylbenzyl)-6-hydroxy-1H-indazole] fall in the same range of IC50: 10 to 1000 nM for the first, 10 to 1000 nM for the second.

In the case of `CCCCN(C)C(=O)c1cc2c(Cc3ccccc3Cl)n[nH]c2cc1O` [Compound A33, 5-(N-Butyl-N-methylaminocarbonyl)-3-(2-chlorobenzyl)-6-hydroxy-1H-indazole], the IC50 is reported as 1000 to 10000 nM.

Source: US8722903B2, “Indazole derivatives for the treatment of HSP9O-induced diseases” (Merck Patent GmbH, priority 2006, dated 2014)
